Assays:
Format in all cases: cell-based, human
[1] = system: early mesoderm progenitors; test: 8-factor HD-DoE experiments optimized for maximum GATA2 expression (qPCR, partial least squares models)
[2] = system: early mesoderm progenitors; test: Factor criticality / dynamic profile analysis of gene expression on removal of a finalized effector; design: expression level of GATA2 / expression level of TAL1 / expression level of CD44 / expression level of KDR / expression level of CD34 / expression level of CD31: unit not given here
[3] = system: early mesoderm progenitors; test: 8-factor HD-DoE experiments optimized for maximum GATA2 expression (qPCR, partial least squares models); details: first model, FIG. 2; factors Forskolin, VEGF, FGF2, Albumax, SUN1162, Hydrocortisone, SB341542, Resveratrol; 3 days after stage 1
Source text: The early mesoderm progenitors were used for further differentiation along the endothelial lineage using a High-Dimensional Design of Experiments (HD-DoE) approach to simultaneously test multiple process inputs (e.g., small molecule agonists or antagonists) on output responses, such as gene expression. Based on predicted conditions that maximize expression of hemogenic endothelial enriched genes such as CD31, CD34, CD143, CD309, GATA2, Fill and RUNX1, vWF, a complex recipe was developed for generating differentiated hemogenic endothelial cells from the early mesoderm progenitors, composed of 8 agents as shown below in Table 1:
First, undifferentiated iPSC were grown for 48 h in CDM2 media containing 6 uM CHIR99021 (referred to herein as stage 1). Then stage 2 media was engineered. The basis of this was an 8-factor HD-DoE experiment with focus on differentiation of cells toward the hemogenic endothelial lineage for an additional 3 days after termination of stage 1 treatment. To test the effectors, 48 different combinations of effectors generated using Design-of-Experiments compression through D-optimality were robotically prepared. The effector combinations were prepared in a basal media and were subsequently added to the cells, which were then allowed to differentiate. Three days later, RNA extraction was performed, and gene expression was obtained using quantitative PCR analysis. The data were normalized and modeled using partial least squares regression analysis to the effector design, resulting in the generation of gene-specific models, which after model tuning for maximal Q2 predictive power, provided explanation of the effectors ability to control the expression of individual genes, combinatorically, and individually. Solutions within the tested space could then be explored to address desirability. For stage 2, conditions were created inducing the expression of GATA2, a transcription factor identified as a master regulator of hematopoiesis. GATA2 promotes the generation of HECs and facilitates endothelial-to-hematopoietic transition (EHT). GATA2 also suppresses cardiac differentiation at the mesoderm stage, directing cells to a hematopoietic fate. Optimizing for maximal expression of GATA2 led to a robust solution. […] In this model, high levels of KDR, important receptor for VEGF signaling, were observed. […] This model was derived from initial testing of eight factors including: Forskolin, VEGF, FGF2, Albumax, SUN1162, Hydrocortisone, SB341542, and Resveratrol. […] Factors with low contribution were excluded.

[4] = second model, FIG. 3, factors CHIR, VEGF, FGF2, TTNBP, AGN194310, Y27632, Thymosin-β4, heparin
[5] = model FIG. 7, named factor removed, others kept
[6] = model FIG. 9, named factor removed
[7] = model FIG. 11, named factor removed
[8] = model FIG. 9A, before addition of SANT1
[9] = model FIG. 9A, with addition of SANT1

With `CCc1ccc(C2=CC(C)(C)Sc3ccc(C#Cc4ccc(C(=O)O)cc4)cc32)cc1` [AGN194310] as the compound, how does the “factor contribution (maximum expression of GATA2)” value (shortened to “factor contribution”) [1, 4] read?
Its value is “relatively low factor contribution”.

How did the “factor contribution” value [1, 4] turn out when `Cc1c[nH]c(-c2cnc(NCCNc3ccc(C#N)cn3)nc2-c2ccc(Cl)cc2Cl)n1` [CHIR] was run?
Its value is “relatively low factor contribution”.

`C=C[C@@]1(C)CC(=O)[C@]2(O)[C@@]3(C)[C@@H](O)CCC(C)(C)[C@@H]3[C@H](O)[C@H](OC(C)=O)[C@@]2(C)O1` [Forskolin, reference compound] was tested. Which “expression level of GATA2” value ([2]; model FIG. 7 (VEGF, Forskolin, FGF2), factor present) did it give?
Its value is 583.

What about the “expression level of CD34” value ([2]; model FIG. 7, factor present) of the same compound?
Its value is 2350.

And the “expression level of CD44” value ([2]; model FIG. 7, factor present)?
Its value is 578.

What about the “expression level of FLI1 (Fill [sic])” value ([2]; model FIG. 7, factor present) of the same compound?
The value was 3971.

What about the “expression level of KDR” value ([2]; model FIG. 7, factor present) of the same compound?
Its value is 33751.

What about the “expression level of TAL1” value ([2]; model FIG. 7, factor present) of the same compound?
The value was 370.

And the “expression level of CD34” value [2, 5]?
The value was 2240.

And the “expression level of CD44” value [2, 5]?
Its value is 540.

What about the “expression level of FLI1 (Fill [sic])” value [2, 5] of the same compound?
The value was 3740.

And the “expression level of GATA2” value [2, 5]?
Its value is 373.

What about the “expression level of KDR” value [2, 5] of the same compound?
Its value is 32839.

And the “expression level of TAL1” value [2, 5]?
The value was 318.

What about the “factor contribution” value [3] of the same compound?
Its value is 27.

Which “effect on expression of hemogenic endothelial genes analyzed (in words)” value ([2]; model FIG. 10) does the source give for `O=C1O[C@H]([C@@H](O)CO)C(O)=C1O` [L-ascorbic acid, reference compound] here?
Its value is “increased expression of crucial genes”.

And the “factor contribution” value ([1]; fourth model, FIG. 5, factors VEGF, FGF2, Sphingosine 1 phosphate, V11298, Pyrintegrin, Erythropoietin, L-ascorbic acid, XAV939)?
Its value is 5.

What does the source list for `c1ccc2c(Oc3nc(Nc4ccc(N5CCOCC5)cc4)c4ncn(C5CCCCC5)c4n3)cccc2c1` [Purmorphamine, reference compound]?
expression level of GATA2 ([2]; model FIG. 9 (Purmorphamine, VEGF, B-27 kept), factor present): 275; expression level of CD34 ([2]; model FIG. 9, factor present): 3230; expression level of FLI1 (Fill [sic]) ([2]; model FIG. 9, factor present): 3571; expression level of KDR ([2]; model FIG. 9, factor present): 13612; expression level of TAL1 ([2]; model FIG. 9, factor present): 1008; expression level of CD34 [2, 6]: 2369; expression level of FLI1 (Fill [sic]) [2, 6]: 2324; expression level of GATA2 [2, 6]: 105; expression level of KDR [2, 6]: 7614; expression level of TAL1 [2, 6]: 428; factor contribution (maximum expression of GATA2) ([1]; third model, FIG. 4, factors YHHU, DBZ, Purmorphamine, SANT1, LPA, Yodal, VEGF, B-27): 20

Which “expression level of GATA2” value ([2]; model FIG. 11 (Retinoic Acid, BMP4, VEGF), factor present) does the source give for `CC1=C(/C=C/C(C)=C/C=C/C(C)=C/C(=O)O)C(C)(C)CCC1` [Retinoic Acid, Retinoic acid, reference compound] here?
Its value is 519.

What about the “expression level of CD31” value ([2]; model FIG. 11, factor present) of the same compound?
Its value is 768.

What about the “expression level of CD34” value ([2]; model FIG. 11, factor present) of the same compound?
The value was 3971.

What about the “expression level of FLI1 (Fill [sic])” value ([2]; model FIG. 11, factor present) of the same compound?
The value was 3250.

And the “expression level of TAL1” value ([2]; model FIG. 11, factor present)?
The value was 490.

What about the “expression level of CD31” value [2, 7] of the same compound?
The value was 486.

What about the “expression level of CD34” value [2, 7] of the same compound?
Its value is 2902.

And the “expression level of FLI1 (Fill [sic])” value [2, 7]?
Its value is 2936.

What about the “expression level of GATA2” value [2, 7] of the same compound?
The value was 281.

And the “expression level of TAL1” value [2, 7]?
Its value is 235.

And the “factor contribution” value ([1]; fifth model, FIG. 6, factors VPA, SCF, BMP4, EFG, FLT3L, Arginine, Retinoic Acid, VEGF)?
Its value is 22.

With `Cc1nn(-c2ccccc2)c(C)c1/C=N/N1CCN(Cc2ccccc2)CC1` [SANT1, reference compound] as the compound, how does the “effect on expression of genes of interest (in words)” value ([2]; model FIG. 9) read?
Its value is “decreased levels of all genes of interest”.

What about the “expression level of CD34” value [2, 8] of the same compound?
Its value is 3159.

And the “expression level of KDR” value [2, 8]?
The value was 13469.

And the “expression level of TAL1” value [2, 8]?
The value was 1010.

What about the “expression level of CD34” value [2, 9] of the same compound?
Its value is 1995.

What about the “expression level of KDR” value [2, 9] of the same compound?
The value was 12504.

What about the “expression level of TAL1” value [2, 9] of the same compound?
The value was 498.
